Results from patent US11964990B2, “1,3,4,7-tetrahydro-2H-pyrrolo[3′,2′:5,6]pyrido[2,3-b][1,4]oxazepine bcl-2 inhibitors” (AbbVie Inc., priority 2022, dated 2024).
pEC50: −log10 of the molar value. “And” between values parts separate entries of the source, which are not always exact repeats. Equal entries are not always repeated. Where two headings read alike, the source gives them in different places. One block for each compound: values may come before it.

How the values were obtained:
Molt-4 cells = test: Cell viability counter screen assay (CellTiter-Glo) in Molt-4 cells; type: cell-based; conditions: 24 hours, 10% Human Serum, 50% decrease in cell viability
In short: (§1)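 RS4;11 or Molt-4 cells (3000 per well) in RPMI 1640 with 10% human serum treated with compound for 24 h, 5% CO2. Viability measured by CellTiter-Glo as percent of control; EC50 from sigmoidal dose-response curves.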

RS4;11 cells = test: Cell viability assay (CellTiter-Glo) in RS4;11 cell line; type: cell-based; conditions: 24 hours, 10% Human Serum, 50% decrease in cell viability
In short: as §1

[1] = Bioavailability study: pharmacokinetics after single intravenous or oral dose in mouse; type: in vivo; conditions: for Vd: read-out: VSS
Method: Studies were conducted to evaluate the pharmacokinetic profiles of Example 25 herein and Example 2 in WO 2019/040550 after single intravenous or oral dose in mouse. CD-1 mice (male) were obtained from Charles River Laboratories (Wilmington, MA).
The pharmacokinetics of Example 25 herein and Example 2 in WO 2019/040550 were evaluated following single 1 mg/kg intravenous or oral doses in mouse. Example 25 herein and Example 2 in WO 2019/040550 were prepared as a solution in DMSO: Tween 80: PEG-400: Dextrose 5% in Water (5:5:20:70, v/v) for the IV and oral dose mouse studies. The intravenous dose was administered as a slow bolus to the penile vein under isoflurane anesthesia. The oral doses were administrated by gavage. Serial blood samples were obtained […], 0.25, 0.5, 1.0, 4, 6, 9, 12, 24, 32 and 48 hours post dosing and […]. Plasma was separated by centrifugation and stored frozen (<−15° C.) until analysis.
HPLC-MS/MS bioanalytical methods were utilized for the quantitation of Example 25 herein and Example 2 in WO 2019/040550 concentration in plasma. The analytical methods used protein precipitation to extract compound from plasma. All samples were combined with a minimum two volume equivalents of organic solvent containing internal standard, vortexed and then centrifuged to pellet the proteins. Supernatants were used for subsequent analysis by liquid chromatography-tandem mass spectrometry (LC-MS/MS). Studies involving quantitative analysis employed spiked standards in plasma that were processed simultaneously with the samples.
Analytes were separated using reverse phase chromatography on a C8 or C18 column prior to analysis on an API5500™ (or higher) mass spectrometer with a Turbo-Ion Spray source. Peak areas were determined using Sciex Analyst™ 1.6 (or higher) software or Sound Analytics DiscoveryQuant™ 2.0 (or higher) software. Actual concentrations (when required) were calculated by regression analysis of the peak area ratio (parent/internal standard) of the spiked standards versus concentrations.
Peak plasma concentrations (Cm) and the time to peak plasma concentration (Tmax) were determined directly from the plasma concentration data for each animal. The compound plasma concentration data were submitted to multi-exponential curve fitting using WinNonlin software. The area under the plasma concentration-time curve from 0 to t hours after dosing (AUC0-t, t=time of the last measurable plasma concentration) was calculated using the linear trapezoidal rule. The residual area extrapolated to infinity, determined as the final measured plasma concentration (Ct) divided by the terminal plasma elimination rate constant (β), was added to the AUC0-t to produce the total area under the curve (AUC0-∞). The apparent total plasma clearance (CLp) was calculated by dividing the administered dose by the AUC0-∞. Half-life (t1/2) was determined with the following calculation: t1/2=ln (2)/elimination rate constant. The initial volume of distribution (Vc) was calculated as the dose divided by the extrapolated concentration at time=0 (C0). The volume of distribution at steady state, Vss, was estimated as a product of the total plasma clearance (CLp) and the mean residence time (MRT); the terminal-phase volume of distribution, Vβ, was derived from the total plasma clearance value (CLp) divided by the terminal plasma elimination rate constant (β). Oral bioavailability (F) was calculated as the dose-normalized AUC0-∞ (AUC0-∞/D) from the oral dose divided by the corresponding dose normalized AUC0-∞ from intravenous dosing.

[2] = male, CD-1, mouse, plasma, iv, 1 mg/kg, IV 1 mg/kg, individual animal
[3] = male, CD-1, mouse, plasma, iv, 1 mg/kg, IV 1 mg/kg, mean
[4] = male, CD-1, mouse, plasma, po, 1 mg/kg, PO 1 mg/kg, individual animal
[5] = male, CD-1, mouse, plasma, po, 1 mg/kg, PO 1 mg/kg, mean

pEC50 (RS4;11 cells): 8.75
Vβ ([1]; IV 1 mg/kg, plasma, individual animal): 0.95 L/kg and 1.0 L/kg and 0.90 L/kg
Vβ ([1]; IV 1 mg/kg, plasma, mean): 0.96 L/kg
Tmax ([1]; male, CD-1, PO 1 mg/kg, plasma, individual animal): 4 h
AUC [1, 2]: 15800 ng·h/mL
C0 [1, 2]: 4010 ng/mL
MRT [1, 2]: 12 h
half-life [1, 2]: 10 h
AUC [1, 3]: 13300 ng·h/mL
C0 [1, 3]: 4160 ng/mL
MRT [1, 3]: 11 h
clearance ([1]; male, CD-1, mouse, plasma, iv, 1 mg/kg, IV 1 mg/kg, plasma, individual animal, read-out: CLP (converted)): 1.05 mL/min/kg
Vd ([1]; male, CD-1, mouse, plasma, iv, 1 mg/kg, IV 1 mg/kg, plasma, individual animal): 0.78 L/kg
Vd ([1]; male, CD-1, mouse, plasma, iv, 1 mg/kg, IV 1 mg/kg, plasma, mean): 0.82 L/kg
AUC [1, 4]: 3580 ng·h/mL
Cmax [1, 4]: 210 ng/mL
half-life [1, 4]: 7.5 h
AUC [1, 5]: 4130 ng·h/mL
Cmax [1, 5]: 254 ng/mL
bioavailability ([1]; male, CD-1, plasma, PO 1 mg/kg vs IV 1 mg/kg, mean, read-out: F (oral bioavailability)): 31%
Compound: CO[C@@H]1CC[C@@H](CNc2ccc(S(=O)(=O)NC(=O)c3ccc(N4CCN5CC6=C(c7ccc(Cl)cc7)CC(C)(C)C[C@H]6OCCCOC[C@@H]5C4)cc3N3CCCOc4nc5[nH]ccc5cc43)cc2[N+](=O)[O-])OC1 [Example 25, 4-((4aS,10aR)-14-(4-chlorophenyl)-12,12-dimethyl-1,2,4a,5,8,9,10a,11,13,15-decahydro-7H,12H-benzo[f]pyrazino[2,1-c][1,8]dioxa[4]azacycloundecin-3(4H)-yl)-2-(3,4-dihydro-2H-pyrrolo[3′,2′:5,6]pyrido[2,3-b][1,4]oxazepin-1(7H)-yl)-N-((4-((((2S,5R)-5-methoxytetrahydro-2H-pyran-2-yl)methyl)amino)-3-nitrophenyl)sulfonyl)benzamide]
pEC50 (Molt-4 cells): 5.89

pEC50 (RS4;11 cells): 8.83
Compound: CC1(C)CC(c2ccc(Cl)cc2)=C2CN3CCN(c4ccc(C(=O)NS(=O)(=O)c5ccc(NC[C@H]6CC[C@@](C)(O)CC6)c([N+](=O)[O-])c5)c(N5CCCOc6nc7[nH]ccc7cc65)c4)C[C@H]3COCCCO[C@@H]2C1 [Example 36, 4-((4aS,10aR)-14-(4-chlorophenyl)-12,12-dimethyl-1,2,4a,5,8,9,10a,11,13,15-decahydro-7H,12H-benzo[f]pyrazino[2,1-c][1,8]dioxa[4]azacycloundecin-3(4H)-yl)-2-(3,4-dihydro-2H-pyrrolo[3′,2′:5,6]pyrido[2,3-b][1,4]oxazepin-1(7H)-yl)-N-((4-((((1s,4s)-4-hydroxy-4-methylcyclohexyl)methyl)amino)-3-nitrophenyl)sulfonyl)benzamide]
pEC50 (Molt-4 cells): 6.93

pEC50 (RS4;11 cells): 8.78
Compound: CC1(C)CC(c2ccc(Cl)cc2)=C2CN3CCN(c4ccc(C(=O)NS(=O)(=O)c5ccc(NCC6(F)CCN(C7COC7)CC6)c([N+](=O)[O-])c5)c(N5CCCOc6nc7[nH]ccc7cc65)c4)C[C@H]3COCCCO[C@@H]2C1 [Example 39, 4-((4aS,10aR)-14-(4-chlorophenyl)-12,12-dimethyl-1,2,4a,5,8,9,10a,11,13,15-decahydro-7H,12H-benzo[f]pyrazino[2,1-c][1,8]dioxa[4]azacycloundecin-3(4H)-yl)-2-(3,4-dihydro-2H-pyrrolo[3′,2′:5,6]pyrido[2,3-b][1,4]oxazepin-1(7H)-yl)-N-((4-(((4-fluoro-1-(oxetan-3-yl)piperidin-4-yl)methyl)amino)-3-nitrophenyl)sulfonyl)benzamide]
pEC50 (Molt-4 cells): 6.34

pEC50 (RS4;11 cells): 8.41
Compound: CO[C@H]1C[C@H](CNc2ccc(S(=O)(=O)NC(=O)c3ccc(N4CCN5CC6=C(c7ccc(Cl)cc7)CC(C)(C)C[C@H]6OCCCOC[C@@H]5C4)cc3N3CCCOc4nc5[nH]ccc5cc43)cc2[N+](=O)[O-])C1 [Example 41, 4-((4aS,10aR)-14-(4-chlorophenyl)-12,12-dimethyl-1,2,4a,5,8,9,10a,11,13,15-decahydro-7H,12H-benzo[f]pyrazino[2,1-c][1,8]dioxa[4]azacycloundecin-3(4H)-yl)-2-(3,4-dihydro-2H-pyrrolo[3′,2′:5,6]pyrido[2,3-h][1,4]oxazepin-1(7H)-yl)-N-((4-((((1r,3r)-3-methoxycyclobutyl)methyl)amino)-3-nitrophenyl)sulfonyl)benzamide]
pEC50 (Molt-4 cells): < 5.00

Continued, compound first:

Compound: CC1(C)CC(c2ccc(Cl)cc2)=C2CN3CCN(c4ccc(C(=O)NS(=O)(=O)c5ccc(NC[C@H]6CC[C@H](N7CCOCC7)CO6)c([N+](=O)[O-])c5)c(N5CCCOc6nc7[nH]ccc7cc65)c4)C[C@H]3COCCCO[C@@H]2C1 [Example 37, 4-((4aS,10aR)-14-(4-chlorophenyl)-12,12-dimethyl-1,2,4a,5,8,9,10a,11,13,15-decahydro-7H,12H-benzo[f]pyrazino[2,1-c][1,8]dioxa[4]azacycloundecin-3(4H)-yl)-2-(3,4-dihydro-2H-pyrrolo[3′,2′:5,6]pyrido[2,3-b][1,4]oxazepin-1(7H)-yl)-N-((4-((((2R,5S)-5-morpholinotetrahydro-2H-pyran-2-yl)methyl)amino)-3-nitrophenyl)sulfonyl)benzamide]
pEC50 (Molt-4 cells): 5.84
pEC50 (RS4;11 cells): 8.98

Compound: CO[C@H]1CC[C@H](COc2ccc(S(=O)(=O)NC(=O)c3ccc(N4CCN5CC6=C(c7ccc(Cl)cc7)CC(C)(C)C[C@H]6OCCCOC[C@@H]5C4)cc3N3CCCOc4nc5[nH]ccc5cc43)cc2Cl)OC1 [Example 40, N-((3-chloro-4-(((2R,5S)-5-methoxytetrahydro-2H-pyran-2-yl)methoxy)phenyl)sulfonyl)-4-((4aS,10aR)-14-(4-chlorophenyl)-12,12-dimethyl-1,2,4a,5,8,9,10a,11,13,15-decahydro-7H,12H-benzo[f]pyrazino[2,1-c][1,8]dioxa[4]azacycloundecin-3(4H)-yl)-2-(3,4-dihydro-2H-pyrrolo[3′,2′:5,6]pyrido[2,3-b][1,4]oxazepin-1(7H)-yl)benzamide]
pEC50 (Molt-4 cells): < 5.00
pEC50 (RS4;11 cells): 7.61

Compound: CC1(C)CC(c2ccc(Cl)cc2)=C2CN3CCN(c4ccc(C(=O)NS(=O)(=O)c5ccc(OCC6CCOCC6)c([N+](=O)[O-])c5)c(N5CCCOc6nc7[nH]ccc7cc65)c4)C[C@H]3COCCCO[C@@H]2C1 [Example 46, 4-((4aS,10aR)-14-(4-chlorophenyl)-12,12-dimethyl-1,2,4a,5,8,9,10a,11,13,15-decahydro-7H,12H-benzo[f]pyrazino[2,1-c][1,8]dioxa[4]azacycloundecin-3(4H)-yl)-2-(3,4-dihydro-2H-pyrrolo[3′,2′:5,6]pyrido[2,3-b][1,4]oxazepin-1(7H)-yl)-N-((3-nitro-4-((tetrahydro-2H-pyran-4-yl)methoxy)phenyl)sulfonyl)benzamide]
pEC50 (Molt-4 cells): < 5.00
pEC50 (RS4;11 cells): 8.03

Compound: CC1(C)CC(c2ccc(Cl)cc2)=C2CN3CCN(c4ccc(C(=O)NS(=O)(=O)c5ccc(OC[C@H]6CC[C@@](C)(O)CC6)c([N+](=O)[O-])c5)c(N5CCCOc6nc7[nH]ccc7cc65)c4)C[C@H]3COCCCO[C@@H]2C1 [Example 49, 4-((4aS,10aR)-14-(4-chlorophenyl)-12,12-dimethyl-1,2,4a,5,8,9,10a,11,13,15-decahydro-7H,12H-benzo[f]pyrazino[2,1-c][1,8]dioxa[4]azacycloundecin-3(4H)-yl)-2-(3,4-dihydro-2H-pyrrolo[3′,2′:5,6]pyrido[2,3-b][1,4]oxazepin-1(7H)-yl)-N-((4-(((1s,4s)-4-hydroxy-4-methylcyclohexyl)methoxy)-3-nitrophenyl)sulfonyl)benzamide]
pEC50 (Molt-4 cells): 7.44
pEC50 (RS4;11 cells): 7.60
